Results: article PMC11256326, “Discovery of Heparin Mimetic, Potent, and Selective Inhibitors of Human Clotting Factor XIIIa” (ACS Omega, 2024)

Legend:
[1] = system: MCF-7 human breast carcinoma cells; assay: cell viability, Alamar Blue, MCF-7; assay type: cell-based; details: MCF-7, 10 μM, 3 days
Procedure: (§1) To further evaluate the selectivity as well as the potential toxicity of inhibitors, we studied their effects on the clotting times of normal human plasma as well as their effects on the proliferation of three cell lines. On the one hand, the inhibitors’ effects on activated partial thromboplastin time (APTT) and prothrombin time (PT) were measured, as described earlier under in vitro conditions,[52]−[55] using variable concentrations (0–2000 μM) (Table 3). […] On the other hand, the antiproliferative properties of inhibitors 13 and 16 were evaluated in three cell lines of breast (MCF-7), intestine (CaCo-2), and kidney (HEK-293) (Figure 5B), as described earlier.[56] […] Overall, inhibitor 16 can be considered for further development as a potent, selective, and nontoxic inhibitor of human FXIIIa.
HEK-293 human embryonic kidney cells,[66] CaCo-2 heterogeneous human epithelial colorectal adenocarcinoma cells,[67] and MCF-7 human breast carcinoma cells[68] were treated as reported previously.[69],[70] […] Subsequently, fluorescence readings (λEx. = 560 nm and λEm. = 590 nm) were taken using the Synergy H1 multiplate reader (BioTek) to quantify cell numbers both in the absence (utilizing distilled water as a control) and the presence of inhibitors 13 and 16 (at a concentration of 10 μM; incubated for 3 days). […]

FXIIIa = biological target: T1, FXIIIa (Homo sapiens, UniProt P00488); assay: bisubstrate, fluorescence-based trans-glutamination assay; assay type: biochemical; details: for HS (Hill slope), FXIIIa inhibition: logistic fit eq 1; for IC50: pH 7.4, 37 °C, substrates dansylcadaverine and N,N-dimethylcasein
T1 construct: purchased Haematologic Technologies; host or cells: human plasma
T1 sequence (P00488 39-732 limits assumed): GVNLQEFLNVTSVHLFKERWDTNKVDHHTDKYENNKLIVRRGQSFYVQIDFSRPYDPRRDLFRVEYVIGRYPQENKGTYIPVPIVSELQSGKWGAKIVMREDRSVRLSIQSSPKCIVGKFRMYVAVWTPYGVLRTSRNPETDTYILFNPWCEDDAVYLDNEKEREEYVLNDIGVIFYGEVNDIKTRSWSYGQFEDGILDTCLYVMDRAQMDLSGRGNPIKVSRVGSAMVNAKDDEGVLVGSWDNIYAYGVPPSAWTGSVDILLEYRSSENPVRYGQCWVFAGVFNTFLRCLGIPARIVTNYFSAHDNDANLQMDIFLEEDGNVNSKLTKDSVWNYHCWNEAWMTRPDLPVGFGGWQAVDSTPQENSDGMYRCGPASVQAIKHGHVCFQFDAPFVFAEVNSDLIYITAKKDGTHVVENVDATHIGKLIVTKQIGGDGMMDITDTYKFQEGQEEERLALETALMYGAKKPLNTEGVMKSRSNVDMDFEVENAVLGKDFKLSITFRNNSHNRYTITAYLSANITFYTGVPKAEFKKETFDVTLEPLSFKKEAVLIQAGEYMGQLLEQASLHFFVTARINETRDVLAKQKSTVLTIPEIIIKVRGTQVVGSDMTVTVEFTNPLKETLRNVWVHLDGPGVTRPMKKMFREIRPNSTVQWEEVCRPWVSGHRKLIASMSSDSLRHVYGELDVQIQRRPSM
Source text: A series of 27 sulfonated molecules (Figure 3) was screened for inhibition of human FXIIIa using a modified bisubstrate, fluorescence-based trans-glutamination assay, as described earlier.[36],[49] Dansylcadaverine and N,N-dimethylcasein were used as two substrates, which upon FXIIIa-dependence conjugation show a marked increase in fluorescence at 550 nm (λEX = 360 nm). The sulfonated molecules were structurally diverse given their number of anionic groups (mono- (inhibitors 24–27) to octa- (inhibitor 9)), number of building blocks (monomeric (molecules 26–29) to […] (inhibitor 14)), and the nature of the building block of oligomeric derivatives (benzamide derivatives (inhibitors 3–10, 24, and 25), triazine derivatives (inhibitors 11–14), and azo-naphthalene derivatives (molecules 15–22), and ureido-naphthalene derivative (23)) (Figure 3).
To measure the potency and efficacy of these inhibitors, the dose-dependence of FXIIIa inhibition was evaluated using logistic eq 1 (Table 1). The potency of inhibition refers to the IC50 (x-axis), whereas the efficacy refers to the net change in residual FXIIIa activity (ΔY%) (y-axis). Iodoacetamide, a nonselective inhibitor of thiol-containing enzymes, was used as a positive control.
To evaluate the effect of sulfonated molecules on human FXIIIa, a bisubstrate, fluorescence-based trans-glutamination assay was performed as we reported previously.[36],[49] Generally, 1 μL of the sulfonated molecule was diluted with 87 μL of pH 7.4 buffer (50 mM Tris-HCl, 1 mM CaCl2, 100 mM NaCl, and 2 mg/mL N,N-dimethylcasein) and 5 μL dithiothreitol (20 mM) at 37 °C followed by the addition of 2 μL of human FXIIIa (0.3 μM) and incubation for 10 min. The activity of FXIIIa was monitored following the addition of 5 μL of dansylcadaverine (2 mM) by measuring the initial rate of increase in fluorescence emission (λEx. = 360 nm and λEm. = 550 nm). Relative residual FXIIIa activity at each concentration of the inhibitor was calculated from the ratio of FXIIIa activity in the presence and absence of the inhibitor. Logistic eq 1 was used to fit the concentration dependence of residual FXIIIa activity to obtain the potency (IC50) and efficacy (ΔY%) of inhibition. [drawing 1] 1
This equation defines Y as the ratio of residual FXIIIa activity with the inhibitor present compared to its absence. YM represents the maximum possible value of residual FXIIIa activity, while YO denotes the minimum possible value. IC50 signifies the concentration of the inhibitor causing 50% enzyme activity inhibition, and HS represents the Hill slope. Determination of YM, YO, IC50, and HS values is achieved through nonlinear curve fitting of the experimental data.

normal human plasma = assay: prothrombin time (PT) of normal human plasma; assay type: biochemical; details: in vitro
Procedure: as §1
Clotting times, including activated partial thromboplastin time (APTT) and prothrombin time (PT), were assessed in normal human plasma utilizing the BBL Fibrosystem fibrometer from Becton–Dickinson, as detailed in previous publications.[51]−[54] For the PT assay, thromboplastin-D was dissolved in 4 mL of highly purified water and then warmed to 37 °C. Subsequently, 10 μL of the inhibitor was added to 90 μL of normal human plasma and incubated for 30 s. Following this, 200 μL of prewarmed PT reagent was added, and the clotting time was recorded. In the APTT assay, 10 μL of the inhibitor was combined with 90 μL of normal human plasma and 100 μL of prewarmed APTT reagent (0.2% ellagic acid). After incubation for 4 min at 37 °C, clotting was initiated by adding 100 μL of prewarmed 0.025 M CaCl2, and the clotting time was documented. Multiple concentrations of each molecule were employed in both assays to establish a concentration vs effect curve.

Row | Structure (SMILES) | effect on proliferation / cell viability [1] | HS (Hill slope), FXIIIa inhibition (FXIIIa) | IC50 (FXIIIa) [µM] | PT2X (concentration required to double PT) (normal human plasma) [µM]
1 | Nc1c(/N=N/c2ccc(S(=O)(=O)CCOS(=O)(=O)O)cc2)c(S(=O)(=O)O)cc2cc(S(=O)(=O)O)c(/N=N/c3ccc(S(=O)(=O)CCOS(=O)(=O)O)cc3)c(O)c12 [compound 16] | does not significantly affect the proliferation | 0.8 ± 0.1 | 2.4 ± 0.5 | –
2 | Nc1c(/N=N/c2ccc(Nc3nc(Cl)nc(Nc4cccc(S(=O)(=O)O)c4)n3)cc2S(=O)(=O)O)c(S(=O)(=O)O)cc2c(O)c(/N=N/c3ccc(Nc4nc(Cl)nc(Nc5cccc(S(=O)(=O)O)c5)n4)cc3S(=O)(=O)O)ccc12 [compound 14] | – | 1.1 ± 0.1 | 5.1 ± 0.3 | –
3 | Cc1cc(-c2ccc(/N=N/c3ccc4c(S(=O)(=O)O)cc(S(=O)(=O)O)c(N)c4c3O)c(C)c2)ccc1/N=N/c1ccc2c(S(=O)(=O)O)cc(S(=O)(=O)O)c(N)c2c1O [compound 18] | – | 1.5 ± 0.6 | – | 497.9 ± 52
4 | COc1cc(-c2ccc(/N=N/c3ccc4c(S(=O)(=O)O)cc(S(=O)(=O)O)c(N)c4c3O)c(OC)c2)ccc1/N=N/c1ccc2c(S(=O)(=O)O)cc(S(=O)(=O)O)c(N)c2c1O [compound 19] | – | 1.4 ± 0.4 | 13.9 ± 2.6 | 3073.2 ± 281
5 | Nc1c(S(=O)(=O)O)cc(Nc2ccc(Nc3nc(Cl)nc(Nc4ccccc4S(=O)(=O)O)n3)c(S(=O)(=O)O)c2)c2c1C(=O)c1ccccc1C2=O [compound 13] | does not significantly affect the proliferation | 0.7 ± 0.03 | 3.1 ± 0.3 | –
